Tested on: PD-1/PD-L1 interaction, Jurkat cells overexpressing PD-1 with CHO-K1 cells overexpressing TCR activator and PD-L1
Assay: Cell-surface PD-L1/PD-1 immune checkpoint interaction assay (NFAT-luciferase reporter)
Assay type: cell-based
Conditions: control antibody; increase in luciferase reporter; fit of Hill equation; mean ± SD from three independent experiments
Protocol: CHO-K1 expressing the TCR activator and PD-L1 and Jurkat T cells carrying an NFAT-dependent luciferase gene and overexpressing PD-1 were obtained from Promega. The cells were cultured in RPMI 1640 medium supplemented with 10% FBS with hygromycin B (50 µg/mL) and G418 (250 µg/mL) at 37 °C with 5% CO2.
24 h before the experiment, the CHO-K1 cells were seeded on a 96-well plate in an amount of 10,000 cells/well. 2.5-fold serial dilutions of p104 were prepared in DMSO followed by 1000× dilution in the assay buffer (RPMI 1640, 1% FBS). The culture medium was replaced with the assay buffer containing 0.02–250 µM of p104. The Jurkat cells in the amount of 50,000 cells/well were added and co-cultured for 3 h in standard conditions. Luminescence was determined using Bio-Glo Assay reagent (Promega, Madison, WI, USA) following manufacturer protocol. Data were normalized at vehicle-treated control.

## Atezolizumab: FDA-approved therapeutic monoclonal antibody targeting PD-L1
  EC50: 3.4 ± 0.2 nM
